A value given as a limit tells only on which side of the number the result lay.

This test deals with Complement factor D (Homo sapiens, UniProt P00746). The test is described as follows: Human Factor D Assay: Human Factor D (purified from human serum, Complement Technology, Inc.) at 80 nM final concentration is incubated with test compound at various concentrations for 5 minutes at room temperature in 50 mM Tris, 1M NaCl, pH 7.5. A synthetic substrate Z-L-Lys-SBzl and DTNB (Ellman's reagent) are added to final concentrations of 100 μM each. Absorbance at 405 nm (A405) is recorded at 30 second intervals for 30 minutes using a microplate spectrophotometer. IC50 values are calculated by nonlinear regression of complement Factor D reaction rates as a function of test compound concentration.
Complement factor D, sequence (P00746 whole entry): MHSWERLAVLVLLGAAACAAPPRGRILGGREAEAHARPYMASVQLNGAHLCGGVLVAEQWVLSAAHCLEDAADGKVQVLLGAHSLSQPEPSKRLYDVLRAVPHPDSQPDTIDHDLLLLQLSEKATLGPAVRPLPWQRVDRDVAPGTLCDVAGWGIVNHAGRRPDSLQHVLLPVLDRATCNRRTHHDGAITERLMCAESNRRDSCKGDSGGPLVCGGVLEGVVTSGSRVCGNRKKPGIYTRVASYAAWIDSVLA

`CC(=O)c1nn(CC(=O)N2C[C@H](F)C[C@H]2C(=O)Nc2cccc(Br)n2)c2ccc(-c3cnc(S(C)(=O)=NC(=O)OC(C)(C)C)nc3)cc12` (stereo partly specified): the IC50 – broadly, the concentration needed to halve the response being measured – is under 1000 nM.

These data come from ChEMBL document CHEMBL5728462, “Disubstituted compounds for treatment of medical disorders” (2021).
